Experimental data published in patent US20230372337A1, “Combination Therapy Comprising an AXL Inhibitor” (BERGENBIO ASA, priority 2020, published 2023).

Assays:
[1] = system: Yumm 1.7 cells; assay: Metastasis, tumor weight and spleen weight, Yumm1.7 model (Example 3); assay type: in vivo, C57Bl6 mice; settings: average on the day of sacrifice
Procedure: Spleens were weighed and prepared for Cytof (cut into pieces of 2 mm and frozen in FBS 90%, DMSO 10% and stored at −80° C. prior to dissociation).
Tumors were weighed and cut in 3 along the long axis, one third was snap frozen in liquid nitrogen in 2 cryotubes per tumor, another third was prepared for Cytof (Cut into pieces of 2 mm and frozen in FBS 90%, DMSO 10% and stored at −80C prior to dissociation). The last piece was fixed in 4% formalin for 24 hours at room temperature and stored in 70% ethanol at 4° C. until embedding in paraffin.

[2] = system: 4T1 mammary carcinoma cells; assay: 4T1 syngeneic mammary carcinoma model, tumor growth and survival (Example 1); settings: 4T1 model; for Effect on mouse survival: without the CPI treatment, 500 mm^3
Text: Exponentially growing 4T1 mammary carcinoma cells were harvested and re-suspended at 4×10^6 per ml in the mixture of serum-free RPMI medium and Matrigel (1:1). Only cells with over 95% viability have been used for in vivo study.
Each animal was weighed before cell implantation. Mice were anesthetized by inhalation of Sevoflurane. Anesthesia was induced at 8% Sevoflurane and maintained at 4%. Every mouse was placed on a heating pad and appropriately marked. Under a suitable depth of unconsciousness, animals were shaved, and the skin and surrounding region washed with Chlorhexidine (1 mg/ml) with use of sterile gauze. Injection was done orthotopically with one tumor per mouse with 0.05 ml of approximately 2×10^5 4T1 cells in serum-free RPMI medium/Matrigel (1:1).
2 randomizations were performed on 150 mice in 30 cages, with 5 animals per cage. The first randomization was performed on day 11 post implantation. The average of tumor volume of animals in each cage was determined. The average tumor volume in the cages was from 3.8 mm^3 to 19.7 mm^3. […] The first randomization was conducted with Latin square method based on the average tumor volume of all animals in each cage. […] Once the average tumor size reached 70 mm^3 for vehicle treated animals and 76 mm^3 for bemcentinib treated animals (tumor volume=L×W×W/2) the second randomization was performed prior to injection of chemotherapeutic agent (doxorubicin) on day 16. Randomization 2 was conducted with Latin square method based on average tumor volume of all animals in the bemcentinib group and in the vehicle group from randomization 1. […]
Tumor growth was measured with a digital hand held caliper at least twice weekly (once tumor emerges), prior to the first dosing, and then on the day of euthanasia.
When tumors reached an average of 7-170 mm^3, each animal received Doxorubicin (Dox) at a concentration of 0.5 mg/ml (groups C,D,F and H) in a total volume of 50 ul×TV/120 as indicated in Table 1. […] Total drug dose was calculated based on each animal's individual tumor size. […]

[3] = system: Type I IFN related genes; assay: RT2 Profiler PCR Array Mouse Type I Interferon Response on 4T1 tumors (Example 1 mechanistic study); assay type: in vivo, BALB/c mice; settings: 4T1 tumors day 19; one animal per group compared to one of the controls
Procedure: RNA was extracted from snap frozen tumors using the RNEasy Microarray Tissue Mini kit from Qiagen following the manufacturer's instructions. As tumors contained Doxorubicin and powderizing them could expose personnel to harmful substances, the RNA was extracted in a closed system using the GentleMACS dissociator and M Tubes. Purity and concentration of RNA was measured using Nanodrop. cDNA was synthesized from RNA using the RT2 First Strand kit (Qiagen) according to the manufacturer's instructions. cDNA was mixed with RT2 SYBR Green Mastermix (Qiagen) and loaded into RT^2 Profiler™ PCR Array Mouse Type I Interferon Response, to analyze the expression of the 84 genes listed in Table 2. The plates were analysed using a Light Cycler 480 (Roche) and data were analysed using the Qiagen Data Analysis Centre and Graph Pad (Prism).
16 animals were used in the mechanistic study and were sacrificed day 19 post implantation, 3 days after Doxorubicin injection. […] The 4 animals from group A (no treatment) were used as controls. The fold changes of 4 animals of group B (Bemcentinib), group F (Doxorubicin) and group H (Bemcentinib+Doxorubicin) are expressed as compared to the control animals (group A).

[4] = system: type I IFN related genes (ISG); assay: RT2 Profiler PCR Array Mouse Type I Interferon Response on 4T1 tumors (Example 2); assay type: in vivo, Balb/c mice
Text: Bemcentinib was given as a loading dose for 3 days (11-13 after tumor implantation) and then as a standard dose until sacrifice.
9 mice have been excluded of the study because of the absence of tumor on day 11. On day 11 post implantation half of the cages were placed in the bemcentinib treated group and the other half in the […]. The average tumor volume when bemcentinib treatment was initiated (day 11) was 54.99 mm^3. […] The tumor volumes when bemcentinib treatment was initiated and the day of randomization are recorded in table 8. The intra tumomoral injection of doxorubicin and sting agonists was adjusted to the tumor volume.
Doxorubicin is provided in a 2 mg/ml solution. As it is technically challenging to inject 50 ul liquid into tumors measuring <100 mm^3, the total dosing volume was calculated based on the following formula: V=50 ul×(TV/120). This is done to minimize variability due to leakage during intratumoral injection. For the 1 mg/kg dose (E,F) Doxorubicin was given at a concentration of 0.5 mg/ml, which corresponds to 1 mg/kg for a 25 g mouse with a tumor of 120 mm^3, and 1 mg/kg for a 20 g mouse with a tumor of 100 mm^3. For 3 mg/kg dose (G,H), a solution of 1.5 mg/ml was used and same volumes was injected. For the 6 mg/kg dose (I,J) the commercial solution of 2 mg/ml will be used and 75 ul was injected for tumor with a volume of 120 mm^3.
The same formula as for doxorubicin was used V=50 ul×(TV/120).
RNA was extracted from […] snap frozen tumors using the RNEasy Microarray Tissue Mini kit from Qiagen following the manufacturer's instructions. As tumors contained Doxorubicin and powderizing them could expose personnel to harmful substances, the RNA was extracted in a closed system using the GentleMACS dissociator and M Tubes. Purity and concentration of RNA was measured using Nanodrop. cDNA was synthesized from RNA using the RT^2 First Strand kit (Qiagen) according to the manufacturer's instructions. cDNA was mixed with RT^2 SYBR Green Mastermix (Qiagen) and loaded into RT Profiler™ PCR Array Mouse Type I Interferon Response or RT^2 Profiler™ PCR Array Mouse Epithelial to Mesenchymal Transition (EMT), analyzing the expression of 84 genes listed in Tables 9 and 10. The plates were analyzed using Light Cycler 480 (Roche) and data were analyzed using the Qiagen Data Analysis Centre and Graph Pad (Prism).
Quiagen RT^2 software was used to analyze all the samples from different groups. To be able to generate heatmaps and graph on fold change including error bars, the data have been analyzed manually with Graph Pad (Prism) when the Quiagen RT^2 software gave significant results between the different groups. For IFN type 1 response 1 mg/kg 48, 72 h and 3 mg/kg 48 h, were analyzed manually. For EMT, 1 mg/kg 48, 72 h, 3 mg/kg 72 h. When the data have been analyzed manually, the results are presented as histograms of mRNA fold changes. For the time points and doses analyzed by the software, the results are presented as tables.
GraphPadPrism was used to generate the heat maps, graphs with mRNA fold change, and to make the statistics. Multiple TTests, paired were performed on ΔΔ Ct values.
The expression of type I IFN related genes (ISG) was assessed in tumors collected 24, 48 and 72 hours after i.t. doxorubicin treatment. 3 groups were compared per timepoint: bemcentinib (bern), doxorubicin only (dox) and doxorubicin combined with bemcentinib (doxbern), the fold changes were compared with the control groups injected with PBS, and the fold change was 1 for the control groups.

[5] = doxorubicin 1 mg/kg i.t., 24 hours after injection, 84 genes
[6] = 24 hours after DMXAA i.t. treatment

Compound	Spleen weight [1] [g]	Effect on mouse survival [2]	Expression of IFN type I related genes [3]	ISG significantly upregulated compared to control (number) [4, 5]	Fold change of one upregulated ISG ([4]; doxorubicin 1 mg/kg i.t., 48 h) [fold]	ISG significantly upregulated compared to control (number) ([4]; doxorubicin 1 mg/kg i.t., 48 h)	ISG significantly upregulated compared to control (number) ([4]; doxorubicin 3 mg/kg i.t., 24 h)	ISG significantly upregulated compared to control (number) ([4]; doxorubicin 3 mg/kg i.t., 48 h)	ISG significantly upregulated compared to control (number) ([4]; doxorubicin 6 mg/kg i.t., 24 hours)	ISG significantly upregulated compared to control (number) ([4]; doxorubicin 6 mg/kg i.t., 48 hours)	ISG significantly upregulated compared to control (number) ([4]; doxorubicin 6 mg/kg i.t., 72 hours)	Median survival (tumor volume 1000 mm^3) ([2]; days until tumor 1000 mm^3 or sacrifice due to severe symptoms) [days]	Fold change of upregulated ISG [4, 6]	ISG significantly upregulated compared to control (number) [4, 6]
COc1cccc2c1C(=O)c1c(O)c3c(c(O)c1C2=O)C[C@@](O)(C(=O)CO)C[C@@H]3O[C@H]1C[C@H](N)[C@H](O)[C@H](C)O1 [Doxorubicin, doxorubicin]	0.17	do not show any effect	increase of expression	no ISG	3	one	one	No	1	8	6	–	–	–
Nc1nc(Nc2ccc3c(c2)CC[C@@H](N2CCCC2)CC3)nn1-c1cc2c(nn1)-c1ccccc1CCC2 [Bemcentinib, bemcentinib]	0.10	do not show any effect	only a few upregulated genes	no ISG	–	none	–	No	–	–	–	34.5	around 2 fold	3
